In patent publication US20250381179A1, “CHROMAN-BASED COMPOUNDS FOR TREATING CANCER” (priority 2024, published 2025):

Test: Phase 1 study: safety and tolerability (TEAEs, NCI CTCAE v5.0)
Method: The study employed an open-label, 3+3 design, with the option of adding backfill patients to each cohort cleared and deemed safe. […] Tumor responses were assessed every 2 cycles using RECIST v1.1 criteria. […] The study also involves an ongoing dose escalation study where participants receive 100 mg, 200 mg, 300 mg, 400 mg, and 600 mg once daily (QD) dose levels.
Safety was assessed through the analysis of the reported incidence of treatment-emergent AEs. Treatment-emergent AEs are those with an onset on or after the initiation of therapy and will be graded according to NCI CTCAE Version 5.0. Other safety endpoints, including laboratory results, vital signs, and ECG findings, were summarized for all patients in the Safety set.

O=C1CC[C@H](N2Cc3cc(N4CCN(CC5CCN(c6ccc([C@@H]7c8ccc(O)cc8OC[C@@H]7c7ccccc7)cc6F)CC5)CC4)ccc3C2=O)C(=O)N1 [compound (1-g), (S)-3-(5-(4-((1-(2-fluoro-4-((3S,4R)-7-hydroxy-3-phenylchroman-4-yl)phenyl)piperidin-4-yl)methyl)piperazin-1-yl)-1-oxoisoindolin-2-yl)piperidine-2,6-dione]
Patients with Any Compound (1-g) related TEAE (100 mg QD (N = 4)): 2 (50.0) n (%)
Patients with Any TEAE (100 mg QD (N = 4)): 4 (100) n (%)
TEAE: Abdominal Distension (100 mg QD (N = 4)): 0 n (%)
TEAE: Abdominal Pain (100 mg QD (N = 4)): 1 (25.0) n (%)
TEAE: Acute Kidney Injury (100 mg QD (N = 4)): 0 n (%)
TEAE: Adrenal Insufficiency (100 mg QD (N = 4)): 0 n (%)
TEAE: Alopecia (100 mg QD (N = 4)): 0 n (%)
TEAE: Anaemia (100 mg QD (N = 4)): 0 n (%)
TEAE: Anxiety (100 mg QD (N = 4)): 0 n (%)
TEAE: Arthralgia (100 mg QD (N = 4)): 0 n (%)
TEAE: Axillary Vein Thrombosis (100 mg QD (N = 4)): 0 n (%)
TEAE: Back Pain (100 mg QD (N = 4)): 0 n (%)
TEAE: Basal Cell Carcinoma (100 mg QD (N = 4)): 1 (25.0) n (%)
TEAE: Breast Pain (100 mg QD (N = 4)): 0 n (%)
TEAE: Confusional State (100 mg QD (N = 4)): 1 (25.0) n (%)
TEAE: Constipation (100 mg QD (N = 4)): 0 n (%)
TEAE: Cough (100 mg QD (N = 4)): 0 n (%)
TEAE: Covid-19 Pneumonia (100 mg QD (N = 4)): 1 (25.0) n (%)
TEAE: Dehydration (100 mg QD (N = 4)): 3 (75.0) n (%)
TEAE: Diarrhoea (100 mg QD (N = 4)): 1 (25.0) n (%)
TEAE: Dizziness (100 mg QD (N = 4)): 0 n (%)
TEAE: Dysgeusia (100 mg QD (N = 4)): 0 n (%)
TEAE: Dyspepsia (100 mg QD (N = 4)): 1 (25.0) n (%)
TEAE: Dyspnoea (100 mg QD (N = 4)): 0 n (%)
TEAE: Dysuria (100 mg QD (N = 4)): 0 n (%)
TEAE: Eructation (100 mg QD (N = 4)): 0 n (%)
TEAE: Fall (100 mg QD (N = 4)): 1 (25.0) n (%)
TEAE: Fatigue (100 mg QD (N = 4)): 1 (25.0) n (%)
TEAE: Flatulence (100 mg QD (N = 4)): 0 n (%)
TEAE: Fracture (100 mg QD (N = 4)): 0 n (%)
TEAE: Fungal Infection (100 mg QD (N = 4)): 0 n (%)
TEAE: Haematoma (100 mg QD (N = 4)): 0 n (%)
TEAE: Hot Flush (100 mg QD (N = 4)): 1 (25.0) n (%)
TEAE: Hyperglycaemia (100 mg QD (N = 4)): 0 n (%)
TEAE: Hyperhidrosis (100 mg QD (N = 4)): 1 (25.0) n (%)
TEAE: Hypokalaemia (100 mg QD (N = 4)): 0 n (%)
TEAE: Hypotension (100 mg QD (N = 4)): 0 n (%)
TEAE: Influenza Like Illness (100 mg QD (N = 4)): 0 n (%)
TEAE: Insomnia (100 mg QD (N = 4)): 1 (25.0) n (%)
TEAE: Lower Respiratory Tract Congestion (100 mg QD (N = 4)): 0 n (%)
TEAE: Lymphocyte Count Decreased (100 mg QD (N = 4)): 0 n (%)
TEAE: Muscle Spasm (100 mg QD (N = 4)): 0 n (%)
TEAE: Muscular Weakness (100 mg QD (N = 4)): 0 n (%)
TEAE: Musculoskeletal Stiffness (100 mg QD (N = 4)): 0 n (%)
TEAE: Nail Disorder (100 mg QD (N = 4)): 0 n (%)
TEAE: Nasal Congestion (100 mg QD (N = 4)): 0 n (%)
TEAE: Nausea (100 mg QD (N = 4)): 1 (25.0) n (%)
TEAE: Neutrophil Count Decreased (100 mg QD (N = 4)): 1 (25.0) n (%)
TEAE: Oedema Peripheral (100 mg QD (N = 4)): 0 n (%)
TEAE: Ophthalmic Migraine (100 mg QD (N = 4)): 0 n (%)
TEAE: Oral Pain (100 mg QD (N = 4)): 0 n (%)
TEAE: Pain In Extremity (100 mg QD (N = 4)): 0 n (%)
TEAE: Pharyngitis (100 mg QD (N = 4)): 0 n (%)
TEAE: Platelet Count Decreased (100 mg QD (N = 4)): 0 n (%)
TEAE: Pleural Effusion (100 mg QD (N = 4)): 0 n (%)
TEAE: Pneumonia (100 mg QD (N = 4)): 1 (25.0) n (%)
TEAE: Productive Cough (100 mg QD (N = 4)): 0 n (%)
TEAE: Rash Maculo-Papular (100 mg QD (N = 4)): 1 (25.0) n (%)
TEAE: Rhinitis Allergic (100 mg QD (N = 4)): 0 n (%)
TEAE: Rib Fracture (100 mg QD (N = 4)): 1 (25.0) n (%)
TEAE: Seizure (100 mg QD (N = 4)): 0 n (%)
TEAE: Sepsis (100 mg QD (N = 4)): 0 n (%)
TEAE: Tremor (100 mg QD (N = 4)): 1 (25.0) n (%)
TEAE: Upper Respiratory Tract Infection (100 mg QD (N = 4)): 1 (25.0) n (%)
TEAE: Urinary Tract Infection (100 mg QD (N = 4)): 0 n (%)
TEAE: Vaginal Haemorrhage (100 mg QD (N = 4)): 0 n (%)
TEAE: Vomiting (100 mg QD (N = 4)): 0 n (%)
related TEAE: Alopecia (100 mg QD (N = 4)): 0 n (%)
related TEAE: Arthralgia (100 mg QD (N = 4)): 0 n (%)
related TEAE: Constipation (100 mg QD (N = 4)): 0 n (%)
related TEAE: Diarrhea (100 mg QD (N = 4)): 1 (25.0) n (%)
related TEAE: Dysgeusia (100 mg QD (N = 4)): 0 n (%)
related TEAE: Eructation (100 mg QD (N = 4)): 0 n (%)
related TEAE: Fatigue (100 mg QD (N = 4)): 0 n (%)
related TEAE: Flatulence (100 mg QD (N = 4)): 0 n (%)
related TEAE: Hot Flush (100 mg QD (N = 4)): 1 (25.0) n (%)
related TEAE: Hyperhidrosis (100 mg QD (N = 4)): 0 n (%)
related TEAE: Nail Disorder (100 mg QD (N = 4)): 0 n (%)
related TEAE: Nausea (100 mg QD (N = 4)): 1 (25.0) n (%)
related TEAE: Neutrophil Count Decreased (100 mg QD (N = 4)): 1 (25.0) n (%)
related TEAE: Platelet Count Decreased (100 mg QD (N = 4)): 0 n (%)
related TEAE: Tremor (100 mg QD (N = 4)): 1 (25.0) n (%)
related TEAE: Vomiting (100 mg QD (N = 4)): 0 n (%)
Patients with Any Compound (1-g) related TEAE (200 mg QD (N = 12)): 3 (25.0) n (%)
Patients with Any TEAE (200 mg QD (N = 12)): 11 (91.7) n (%)
TEAE: Abdominal Distension (200 mg QD (N = 12)): 0 n (%)
TEAE: Abdominal Pain (200 mg QD (N = 12)): 1 (8.3) n (%)
TEAE: Acute Kidney Injury (200 mg QD (N = 12)): 0 n (%)
TEAE: Adrenal Insufficiency (200 mg QD (N = 12)): 1 (8.3) n (%)
TEAE: Alopecia (200 mg QD (N = 12)): 0 n (%)
TEAE: Anaemia (200 mg QD (N = 12)): 1 (8.3) n (%)
TEAE: Anxiety (200 mg QD (N = 12)): 0 n (%)
TEAE: Arthralgia (200 mg QD (N = 12)): 2 (16.7) n (%)
TEAE: Axillary Vein Thrombosis (200 mg QD (N = 12)): 1 (8.3) n (%)
TEAE: Back Pain (200 mg QD (N = 12)): 1 (8.3) n (%)
TEAE: Basal Cell Carcinoma (200 mg QD (N = 12)): 0 n (%)
TEAE: Breast Pain (200 mg QD (N = 12)): 1 (8.3) n (%)
TEAE: Confusional State (200 mg QD (N = 12)): 0 n (%)
TEAE: Constipation (200 mg QD (N = 12)): 1 (8.3) n (%)
TEAE: Cough (200 mg QD (N = 12)): 1 (8.3) n (%)
TEAE: Covid-19 Pneumonia (200 mg QD (N = 12)): 0 n (%)
TEAE: Dehydration (200 mg QD (N = 12)): 1 (8.3) n (%)
TEAE: Diarrhoea (200 mg QD (N = 12)): 0 n (%)
TEAE: Dizziness (200 mg QD (N = 12)): 0 n (%)
TEAE: Dysgeusia (200 mg QD (N = 12)): 0 n (%)
TEAE: Dyspepsia (200 mg QD (N = 12)): 0 n (%)
TEAE: Dyspnoea (200 mg QD (N = 12)): 1 (8.3) n (%)
TEAE: Dysuria (200 mg QD (N = 12)): 1 (8.3) n (%)
TEAE: Eructation (200 mg QD (N = 12)): 0 n (%)
TEAE: Fall (200 mg QD (N = 12)): 1 (8.3) n (%)
TEAE: Fatigue (200 mg QD (N = 12)): 2 (16.7) n (%)
TEAE: Flatulence (200 mg QD (N = 12)): 0 n (%)
TEAE: Fracture (200 mg QD (N = 12)): 1 (8.3) n (%)
TEAE: Fungal Infection (200 mg QD (N = 12)): 0 n (%)
TEAE: Haematoma (200 mg QD (N = 12)): 0 n (%)
TEAE: Hot Flush (200 mg QD (N = 12)): 1 (8.3) n (%)
TEAE: Hyperglycaemia (200 mg QD (N = 12)): 1 (8.3) n (%)
TEAE: Hyperhidrosis (200 mg QD (N = 12)): 1 (8.3) n (%)
TEAE: Hypokalaemia (200 mg QD (N = 12)): 1 (8.3) n (%)
TEAE: Hypotension (200 mg QD (N = 12)): 0 n (%)
TEAE: Influenza Like Illness (200 mg QD (N = 12)): 1 (8.3) n (%)
TEAE: Insomnia (200 mg QD (N = 12)): 1 (8.3) n (%)
TEAE: Lower Respiratory Tract Congestion (200 mg QD (N = 12)): 1 (8.3) n (%)
TEAE: Lymphocyte Count Decreased (200 mg QD (N = 12)): 1 (8.3) n (%)
TEAE: Muscle Spasm (200 mg QD (N = 12)): 0 n (%)
TEAE: Muscular Weakness (200 mg QD (N = 12)): 1 (8.3) n (%)
TEAE: Musculoskeletal Stiffness (200 mg QD (N = 12)): 1 (8.3) n (%)
TEAE: Nail Disorder (200 mg QD (N = 12)): 0 n (%)
TEAE: Nasal Congestion (200 mg QD (N = 12)): 1 (8.3) n (%)
TEAE: Nausea (200 mg QD (N = 12)): 1 (8.3) n (%)
TEAE: Neutrophil Count Decreased (200 mg QD (N = 12)): 1 (8.3) n (%)
TEAE: Oedema Peripheral (200 mg QD (N = 12)): 0 n (%)
TEAE: Ophthalmic Migraine (200 mg QD (N = 12)): 1 (8.3) n (%)
TEAE: Oral Pain (200 mg QD (N = 12)): 0 n (%)
TEAE: Pain In Extremity (200 mg QD (N = 12)): 1 (8.3) n (%)
TEAE: Pharyngitis (200 mg QD (N = 12)): 1 (8.3) n (%)
TEAE: Platelet Count Decreased (200 mg QD (N = 12)): 0 n (%)
TEAE: Pleural Effusion (200 mg QD (N = 12)): 0 n (%)
TEAE: Pneumonia (200 mg QD (N = 12)): 1 (8.3) n (%)
TEAE: Productive Cough (200 mg QD (N = 12)): 1 (8.3) n (%)
TEAE: Rash Maculo-Papular (200 mg QD (N = 12)): 1 (8.3) n (%)
TEAE: Rhinitis Allergic (200 mg QD (N = 12)): 0 n (%)
TEAE: Rib Fracture (200 mg QD (N = 12)): 0 n (%)
TEAE: Seizure (200 mg QD (N = 12)): 1 (8.3) n (%)
TEAE: Sepsis (200 mg QD (N = 12)): 1 (8.3) n (%)
TEAE: Tremor (200 mg QD (N = 12)): 0 n (%)
TEAE: Upper Respiratory Tract Infection (200 mg QD (N = 12)): 1 (8.3) n (%)
